# Measurements published in patent publication US4879311A, “Derivatives of benzoyloxyacetic acid, and preparation and formulations thereof for therapeutic use” (Inverni della Beffa S.p.A., priority 1987, dated 1989).
# Read-outs that look alike come from different tables or passages of the source.
# Legend:
# [1] = system: 6-day old air pouch irritated by carrageenan; assay: irritation of 6-day old air pouch by carrageenan in the rat; type: in vivo; details: os
# Protocol: (2) Irritation of 6-day old air pouch by carrageenan in the rat (A. D. Sedgwick, Y. M. Sin, A. R. Mackay, A. Al-Duaij and D. A. Willoughby; J. Pharm. Pharmacol.; 36, 171, 1984).
# The formation of a dorsal pouch was induced in the rat by dorsal subcutaneous administration of 20 ml of air. 10 ml of air were then injected every day for three consecutive days in order to keep the cavity permeable. Six days after the first injection of air, the dorsal pouch in the animals was treated with 1 ml of 1% carrageenan in physiological solution.
# Compound Ib was administered by gastric probe, 24 hours and 1 hour before administration of the irritating agent.
# The animals, dividedinto groups of five, were killed 4 hours and 24 hours after the carrageenan. The volume of the exudate and the total number of leucocytes were measured.
# [2] = system: writhing induced by phenylquinone; assay: phenylquinone writhing test, oral administration; type: in vivo, mouse; details: oral
# Protocol: (§1) The anti-inflammatory and analgesic activity of compound Ib was tested after oral administration in the carrageenin oedema test in the rat (C. A. Winter et al. Proc. Soc. Exp. Biol. Med., 111, 544, 1962), in the phenylquinone writhing test (I. C. Hendershot and J. J. Forsaith, Pharmacol. Exp. Ther., 125, 237, 1959) and in the hot plate test on the mouse (N. B. Eddy and D. J. Leimbach, J. Pharmacol. Exp. Ther., 107, 385, 1953). The activity of the compound was compared with equimolecular doses of sodium meclofenamate. A comparison was also made between the acute toxicity of the two substances by measuring the oral LD 50 on the rat.
# The substances under test were administered by a stomach probe 1 hour before intraperitoneal injection of phenylquinone (2 mg/kg). The abdominal contractions of the treated animals and the controls were counted during every 10 minutes for half an hour.
# [3] = system: reaction time to heat (hot plate); type: in vivo, mouse; details: oral; for Percentages of mice protected at 30 minutes / Percentages of mice protected at 60 minutes: reaction time 15 seconds or more, 55° C.
# Protocol: as §1
# The substances under test were administered by a stomach probe to preselected mice. The controls and the treated animals were placed on the hot plate (55° C.) one at a time immediately after treatment. The reaction time to heat, was measured 30 and 60 minutes after treatment. Animals were considered protected when the reaction time was 15 seconds or more.
# [4] = system: rat; assay: acute toxicity on the rat, oral LD50; type: in vivo; details: oral LD50, probit method
# Protocol: as §1
# (§2) The two LD 50 values were calculated by the probit method.
# [5] = acute toxicity on the rat, oral LD50; type: in vivo; details: rat, in vivo, po
# Protocol: as §1, §2
# [6] = pH of aqueous solution; type: physicochemical; details: 1% aqueous solution (Ib)
# [7] = system: carrageenin oedema; assay: carrageenin oedema test in the rat, oral administration; type: in vivo; details: rat, oral; for % change of increase of original volume, 1 h / % change of increase of original volume, 2 h / % change of increase of original volume, 3 h / % change of increase of original volume, 4 h / % change of increase of original volume, 5 h: vs controls
# Protocol: as §1
# The substances under test, dissolved in distilled water, were administered by a stomach probe 1 hour before subplantar injection of carrageenin (1% in sterile 0.9% NaCl aqueous solution). […]
# [8] = system: arachidonic acid oedema; assay: arachidonic acid oedema in the rat, oral administration; type: in vivo; details: for change of Increase of Original Volume (in parentheses), 60 min: vs controls
# Protocol: (1) Arachidonic acid oedema in the rat (M. J. Di Martino, G. C. Campbell Jnr., C. E. Wolff and N. Hanna, Agents and Actions; 21, 303, 1987)
# Compound Ib was administered by gastric probe one hour before subplantar injection of 0.1 ml of 0.5% arachidonic acid in carbonate buffer (pH 8-8.2).
# The volume of the paws of the treated animals and of the control was measured with a plethysmometer immediately and 60 minutes after the irritating agent (peak time of oedema).
# [9] = Ib 31.75 mg/kg × 2 (**P < 0.01), sodium meclofenamate 27.5 mg/kg × 2 (*P < 0.05 vs controls), 24 h
# [10] = Ib 31.75 mg/kg × 2, sodium meclofenamate 27.5 mg/kg × 2, 4 h, vs controls
# [11] = Ib 31.75 mg/kg × 2, sodium meclofenamate 27.5 mg/kg × 2, 24 h, vs controls
# [12] = Ib 12.7 mg/kg, sodium meclofenamate 11.0 mg/kg
# [13] = Ib 25.4 mg/kg, sodium meclofenamate 22.0 mg/kg
# [14] = dose corresponding to 10 mg/kg meclofenamic acid (Ib 12.7 mg/kg; sodium meclofenamate 11.0 mg/kg)
# [15] = dose corresponding to 10 mg/kg meclofenamic acid (Ib 12.7 mg/kg; sodium meclofenamate 11.0 mg/kg), **P < 0.01 vs controls
# [16] = dose corresponding to 20 mg/kg meclofenamic acid (Ib 25.4 mg/kg; sodium meclofenamate 22.0 mg/kg), **P < 0.01 vs controls
# [17] = Ib 12.7 mg/kg, sodium meclofenamate 11 mg/kg
# [18] = Ib 25.4 mg/kg, sodium meclofenamate 22 mg/kg
# [19] = dose corresponding to 10 mg/kg meclofenamic acid
# [20] = dose corresponding to 20 mg/kg meclofenamic acid (Ib 25,4 mg/kg; sodium meclofenamate 22,0 mg/kg), **P < 0.01 vs controls
# [21] = dose corresponding to 20 mg/kg meclofenamic acid
compound,measurement,setting,value
"Cc1ccc(Cl)c(Nc2ccccc2C(=O)O)c1Cl [Sodium meclofenamate, sodium meclofenamate, reference compound]","Leucocytes (m ± s.e.), 24 h",[1]; [9],40.14 ± 11.99 × 10^6
same,"Volume of exudate (m ± s.e.), 24 h",[1]; [9],0.52 ± 0.12 mL
same,"Leucocytes (m ± s.e.), 4 h","[1]; Ib 31.75 mg/kg × 2 (*P < 0.05 vs controls), sodium meclofenamate 27.5 mg/kg × 2, 4 h",4.36 ± 1.76 × 10^6
same,"change of leucocytes (in parentheses), 4 h",[1]; [10],-2
same,"change of volume of exudate (in parentheses), 4 h",[1]; [10],-6
same,"change of leucocytes (in parentheses), 24 h",[1]; [11],-52
same,"change of volume of exudate (in parentheses), 24 h",[1]; [11],-42
same,"Volume of exudate (m ± s.e.), 4 h","[1]; dose corresponding to 25 mg/kg meclofenamic acid × 2 (Ib 31.75; sodium meclofenamate 27.5 mg/kg), 4 h",0.30 ± 0.05 mL
same,"% Protection, 0-10 minutes",[2]; [12],52%
same,"% Protection, 10-20 minutes",[2]; [12],20%
same,"% Protection, 20-30 minutes",[2]; [12],40%
same,"% Protection, total",[2]; [12],43%
same,"% Protection, 0-10 minutes",[2]; [13],60%
same,"% Protection, 10-20 minutes",[2]; [13],33%
same,"% Protection, 20-30 minutes",[2]; [13],46%
same,"% Protection, total",[2]; [13],53%
same,Writhing (m ± s.e.) during 10-20 minutes,[2]; [14],16.5 ± 1.0
same,Writhing (m ± s.e.) during 20-30 minutes,[2]; [14],8.6 ± 0.4
same,Writhing (m ± s.e.) during 0-10 minutes,[2]; [15],12.0 ± 1.6
same,"Writhing (m ± s.e.), total minutes",[2]; [15],34.2 ± 1.5
same,Writhing (m ± s.e.) during 10-20 minutes,[2]; dose corresponding to 20 mg/kg meclofenamic acid (Ib 25.4 mg/kg; sodium meclofenamate 22.0 mg/kg),13.7 ± 1.5
same,Writhing (m ± s.e.) during 0-10 minutes,[2]; [16],10.0 ± 1.1
same,Writhing (m ± s.e.) during 20-30 minutes,[2]; [16],7.7 ± 0.8
same,"Writhing (m ± s.e.), total minutes",[2]; [16],28.0 ± 2.9
same,activity in the hot plate test (in words),[3]; mouse,inactive
same,Percentages of mice protected at 30 minutes,[3]; [17],0%
same,Percentages of mice protected at 60 minutes,[3]; [17],0%
same,Percentages of mice protected at 30 minutes,[3]; [18],0%
same,Percentages of mice protected at 60 minutes,[3]; [18],0%
same,Slope,[4],7.402 ± 2.014
same,LD50 at 480 h,"[5]; male and female rats, 20 days of observation, probit method, read-out: DL50",127 mg/kg
same,LD50 at 480 h,"[5]; mg/kg meclofenamic acid, read-out: LD50 as corresponding meclofenamic acid",119 mg/kg
same,pH of aqueous solution (in words),[6],markedly alkaline pH
same,"Increase of original volume (m ± s.e.), 1 h",[7]; [14],0.41 ± 0.05 mL
same,"Increase of original volume (m ± s.e.), 2 h",[7]; [14],0.87 ± 0.10 mL
same,"Increase of original volume (m ± s.e.), 3 h",[7]; [14],1.42 ± 0.10 mL
same,"Increase of original volume (m ± s.e.), 4 h",[7]; [14],1.12 ± 0.07 mL
same,"Increase of original volume (m ± s.e.), 5 h",[7]; [14],1.39 ± 0.08 mL
same,"% change of increase of original volume, 1 h",[7]; [19],-13%
same,"% change of increase of original volume, 2 h",[7]; [19],-8%
same,"% change of increase of original volume, 3 h",[7]; [19],-7%
same,"% change of increase of original volume, 4 h",[7]; [19],-6%
same,"% change of increase of original volume, 5 h",[7]; [19],-10%
same,"Increase of original volume (m ± s.e.), 1 h","[7]; dose corresponding to 20 mg/kg meclofenamic acid (Ib 25,4 mg/kg; sodium meclofenamate 22,0 mg/kg)",0.36 ± 0.05 mL
same,"Increase of original volume (m ± s.e.), 2 h","[7]; dose corresponding to 20 mg/kg meclofenamic acid (Ib 25,4 mg/kg; sodium meclofenamate 22,0 mg/kg), *P < 0.05",0.65 ± 0.05 mL
same,"Increase of original volume (m ± s.e.), 3 h",[7]; [20],0.77 ± 0.07 mL
same,"Increase of original volume (m ± s.e.), 4 h",[7]; [20],1.07 ± 0.09 mL
same,"Increase of original volume (m ± s.e.), 5 h",[7]; [20],1.24 ± 0.07 mL
same,"% change of increase of original volume, 1 h",[7]; [21],-20%
same,"% change of increase of original volume, 2 h",[7]; [21],-32%
same,"% change of increase of original volume, 3 h",[7]; [21],-43%
same,"% change of increase of original volume, 4 h",[7]; [21],-33%
same,"% change of increase of original volume, 5 h",[7]; [21],-25%
same,anti-inflammatory activity compared with reference (in words),[7]; vs sodium meclofenamate,behaved in similar manner
same,minimal effective dose,[7]; read-out: dose at which antagonism of the oedema is statistically significant,68 µmol/kg
same,"change of Increase of Original Volume (in parentheses), 60 min",[8]; [17],-6
same,"change of Increase of Original Volume (in parentheses), 60 min","[8]; Ib 38.1 mg/kg, sodium meclofenamate 33 mg/kg",-29
same,"Increase of Original Volume (m ± s.e.), 60 min",[8]; dose corresponding to 10 mg/kg meclofenamic acid (Ib 12.7 mg/kg; sodium meclofenamate 11 mg/kg),0.58 ± 0.05
same,"Increase of Original Volume (m ± s.e.), 60 min","[8]; dose corresponding to 30 mg/kg meclofenamic acid (Ib 38.1 mg/kg, **P < 0.01; sodium meclofenamate 33 mg/kg, *P < 0.05 vs controls)",0.44 ± 0.06
same,statistically significant dose as fraction of the LD50,"[8]; rat, oedema reduced in statistically significant manner",1/4
